Results published in paper PMC8413292, “Small-molecule polymerase inhibitor protects non-human primates from measles and reduces shedding” (Nature Communications, 2021).
Several values for one entry are separate records, joined by “and”; a condition that tells them apart may be missing. Equal values may be shown once.

Experiments:
[1] = Trough serum concentration during 14-day b.i.d. oral treatment of infected squirrel monkeys; conditions: for ERDRP-0519 trough serum concentration: 50 mg/kg b.i.d. oral
Protocol: All animal experiments were carried out in compliance with the regulations of German animal protection laws and authorized by the Regierungspräsidium Darmstadt, Germany (Dezernat V54 – Veterinärwesen und Verbraucherschutz, Hilpertstrasse 31, 64295 Darmstadt). Adult male and female squirrel monkeys (Saimiri sciureus) were obtained from BioPRIM, 31450 Baziege, or CNRS 0846 Primatologie, 13790 Rousset, France. Each experimental group was housed in a separate room, and animals of the same sex were caged together within the respective groups. For the single-dose pharmacokinetic experiment, animals were anesthetized, and the drug was given through a stomach tube at a concentration of 50 mg/kg bodyweight. Blood samples were collected after 15, 30, and 60 min, and 2, 3, 6, and 24 h. For efficacy assessment, groups of 6 animals were left untreated or treated with 50 mg/kg of ERDRP-0519 twice daily for two weeks, starting either 12 h before or 3 or 7 days after intranasal infection with 10^6 TCID50 of MV/FrankfurtMain.DEU/17.11. Clinical signs, rectal temperature, and weight were recorded daily, and throat swabs and blood samples were collected before infection and twice weekly thereafter. On day 21 post-infection, the animals were euthanized, necropsied, and samples were collected for histological analysis.
Drug concentrations were determined using an internal standard and a reversed phase isocratic HPLC method with positive ion electrospray ionization (ESI) mass spectrometry detection (LC/MS/MS) on an AB-SCIEX API 5500 MS/MS instrument (5 μl injection volume). Pharmacokinetic parameters were estimated using WinNonlin 5.3 (Pharsight).

MeV N gene RNA = assay: Quantitative RT-PCR of MeV N RNA in PBMCs; type: in vivo
Protocol: Organs (21 days post-infection) and PBMCs (twice a week) were frozen in RNAlater (Qiagen) at −80 °C until further processing. For the deceased animal, organs were frozen in RNAlater at the day of death. Lymph nodes were thawed on ice, transferred to TRIzol (ambion life technologies) and homogenized using a tissue homogenizer. Total RNA of lymph nodes and PBMCs was extracted following the TRIzol manufacturer’s protocol. RNA (1000 ng for lymph nodes; 110 ng for PBMCs) was then subjected to reverse transcription using random hexamer primers and Superscript III reverse transcriptase in accordance with the manufacturer’s protocols. Subsequent quantitative PCR (qPCR) was carried out using primer pairs specific for a fragment in the MeV N gene[23] or GAPDH gene(Supplementary Table 2) and the PowerUp SYBR Green Master Mix (Thermo Fisher Scientific) in an Applied Biosystems 7500 Real-Time PCR system. Samples were normalized for GAPDH. The comparative (ΔΔCt) Ct method was applied to determine relative amounts of N-encoding RNA present in samples from treated animals compared to those obtained from untreated control animals (lymph nodes) or compared to those obtained from untreated control animals on day 7 post-infection (peak PBMC virus titer).

Cn1nc(C(F)(F)F)cc1C(=O)Nc1ccc(S(=O)(=O)N2CCCC[C@H]2CCN2CCOCC2)cc1 [ERDRP-0519]
ERDRP-0519 trough serum concentration ([1]; 0 days post-treatment, individual animals): 0 µM and 0.05627 µM and 0.03323 µM
ERDRP-0519 trough serum concentration ([1]; 3 days post-treatment, individual animals): 0.9158 µM and 2.53 µM and 4.796 µM and 7.1567 µM and 0.8139 µM and 7.176 µM and 3.758 µM and 1.907 µM and 3.569 µM and 2.058 µM and 2.606 µM and 7.006 µM and 2.984 µM and 1.541 µM and 2.285 µM
ERDRP-0519 trough serum concentration ([1]; 7 days post-treatment, individual animals): 0.9763 µM and 1.28 µM and 2.908 µM and 3.21 µM and 2.4548 µM and 4.759 µM and 3.323 µM and 2.832 µM and 2.134 µM and 0.6741 µM and 2.096 µM and 3.644 µM and 0.525 µM and 0.5703 µM
ERDRP-0519 trough serum concentration ([1]; 10 days post-treatment, individual animals): 1.654 µM and 2.228 µM and 2.832 µM and 4.4753 µM and 4.4 µM and 4.664 µM and 1.699 µM and 1.669 µM and 0.9989 µM and 0.9857 µM and 2.153 µM and 3.116 µM and 0.6949 µM and 1.573 µM and 0.608 µM
ERDRP-0519 trough serum concentration ([1]; 14 days post-treatment, individual animals): 0.08309 µM and 0.0727 µM and 0.355 µM and 0.6534 µM and 1.862 µM and 2.172 µM and 2.474 µM and 1.513 µM and 0.2417 µM and 0.676 µM and 1.412 µM and 0.1537 µM and 0.3267 µM and 0.02398 µM
concentration at 7 days post-infection ([1]; both, monkey, serum, oral, 50 mg/kg twice daily, ERDRP-0519 serum conc., therapeutic(d7) group, day 7 post-infection, individual animals): 0 nM
Mean drug plasma concentration of all animals over the full study period ([1]; monkey, in vivo): ~ 1.6 µM
drug accumulation on repeat-dosing ([1]; multi-dose b.i.d., 15 animals): does not result in ERDRP-0519 accumulation
Supp. Figure 3a, relative MeV N RNA in PBMCs, group mean (Mean 2) (MeV N gene RNA; prophylactic, Day 0): -12.26
Supp. Figure 3a, relative MeV N RNA in PBMCs, group mean (Mean 2) (MeV N gene RNA; prophylactic, Day 3): -12.06
Supp. Figure 3a, relative MeV N RNA in PBMCs, group mean (Mean 2) (MeV N gene RNA; prophylactic, Day 7): -11.48
Supp. Figure 3a, relative MeV N RNA in PBMCs, group mean (Mean 2) (MeV N gene RNA; prophylactic, Day 10): -12.34
Supp. Figure 3a, relative MeV N RNA in PBMCs, group mean (Mean 2) (MeV N gene RNA; prophylactic, Day 14): -13.16
Supp. Figure 3a, relative MeV N RNA in PBMCs, group mean (Mean 2) (MeV N gene RNA; prophylactic, Day 17): -11.47
Supp. Figure 3a, relative MeV N RNA in PBMCs, group mean (Mean 2) (MeV N gene RNA; prophylactic, Day 21): -10.12
Supplemental Figure 3a source data, relative MeV N RNA in PBMCs, individual animals (MeV N gene RNA; prophylactic, time (d) 0): -12.3202 and -6.433 and -10.4614 and -17.6101 and -12.9356 and -13.7878
Supplemental Figure 3a source data, relative MeV N RNA in PBMCs, individual animals (MeV N gene RNA; prophylactic, time (d) 3): -12.847 and -12.9062 and -10.7172 and -12.2727 and -12.1274 and -11.494
Supplemental Figure 3a source data, relative MeV N RNA in PBMCs, individual animals (MeV N gene RNA; prophylactic, time (d) 7): -12.6218 and -9.583 and -12.0312 and -12.5732 and -12.8193 and -9.245
Supplemental Figure 3a source data, relative MeV N RNA in PBMCs, individual animals (MeV N gene RNA; prophylactic, time (d) 10): -9.991 and -12.9071 and -11.8528 and -13.7115 and -14.2547 and -11.2939
Supplemental Figure 3a source data, relative MeV N RNA in PBMCs, individual animals (MeV N gene RNA; prophylactic, time (d) 14): -12.3346 and -10.7326 and -10.4158 and -12.9517 and -16.1088 and -16.4382
Supplemental Figure 3a source data, relative MeV N RNA in PBMCs, individual animals (MeV N gene RNA; prophylactic, time (d) 17): -14.0262 and -7.645 and -8.833 and -10.0876 and -14.1769 and -14.0235
Supplemental Figure 3a source data, relative MeV N RNA in PBMCs, individual animals (MeV N gene RNA; prophylactic, time (d) 21): -13.9134 and -10.311 and -12.0659 and -11.4656 and -0.8977 and -12.0848
Supp. Figure 3a, relative MeV N RNA in PBMCs, group mean (Mean 2) (MeV N gene RNA; therapeutic (d3), Day 0): -13.2
Supp. Figure 3a, relative MeV N RNA in PBMCs, group mean (Mean 2) (MeV N gene RNA; therapeutic (d3), Day 3): -12.07
Supp. Figure 3a, relative MeV N RNA in PBMCs, group mean (Mean 2) (MeV N gene RNA; therapeutic (d3), Day 7): -9.205
Supp. Figure 3a, relative MeV N RNA in PBMCs, group mean (Mean 2) (MeV N gene RNA; therapeutic (d3), Day 10): -9.289
Supp. Figure 3a, relative MeV N RNA in PBMCs, group mean (Mean 2) (MeV N gene RNA; therapeutic (d3), Day 14): -11.53
Supp. Figure 3a, relative MeV N RNA in PBMCs, group mean (Mean 2) (MeV N gene RNA; therapeutic (d3), Day 17): -11.67
Supp. Figure 3a, relative MeV N RNA in PBMCs, group mean (Mean 2) (MeV N gene RNA; therapeutic (d3), Day 21): -13.06
Supplemental Figure 3a source data, relative MeV N RNA in PBMCs, individual animals (MeV N gene RNA; therapeutic (d3), time (d) 0): -12.185 and -15.2199 and -11.755 and -14.0483 and -12.7958
Supplemental Figure 3a source data, relative MeV N RNA in PBMCs, individual animals (MeV N gene RNA; therapeutic (d3), time (d) 3): -13.2368 and -9.809 and -12.089 and -11.8661 and -12.6935 and -12.7459
Supplemental Figure 3a source data, relative MeV N RNA in PBMCs, individual animals (MeV N gene RNA; therapeutic (d3), time (d) 7): -6.7874 and -7.787 and -8.103 and -8.648 and -13.5153 and -10.39
Supplemental Figure 3a source data, relative MeV N RNA in PBMCs, individual animals (MeV N gene RNA; therapeutic (d3), time (d) 10): -4.115 and -10.1748 and -9.33 and -8.711 and -14.231 and -9.172
Supplemental Figure 3a source data, relative MeV N RNA in PBMCs, individual animals (MeV N gene RNA; therapeutic (d3), time (d) 14): -9.809 and -12.4589 and -12.5095 and -12.5754 and -8.538 and -13.3167
Supplemental Figure 3a source data, relative MeV N RNA in PBMCs, individual animals (MeV N gene RNA; therapeutic (d3), time (d) 17): -10.29 and -10.5346 and -12.5229 and -11.5387 and -13.4468
Supplemental Figure 3a source data, relative MeV N RNA in PBMCs, individual animals (MeV N gene RNA; therapeutic (d3), time (d) 21): -15.6913 and -17.4162 and -8.965 and -9.87 and -13.3809
Supp. Figure 3a, relative MeV N RNA in PBMCs, group mean (Mean 2) (MeV N gene RNA; therapeutic (d7), Day 0): -11.48
Supp. Figure 3a, relative MeV N RNA in PBMCs, group mean (Mean 2) (MeV N gene RNA; therapeutic (d7), Day 3): -11.42
Supp. Figure 3a, relative MeV N RNA in PBMCs, group mean (Mean 2) (MeV N gene RNA; therapeutic (d7), Day 7): -3.189
Supp. Figure 3a, relative MeV N RNA in PBMCs, group mean (Mean 2) (MeV N gene RNA; therapeutic (d7), Day 10): -4.318
Supp. Figure 3a, relative MeV N RNA in PBMCs, group mean (Mean 2) (MeV N gene RNA; therapeutic (d7), Day 14): -7.135
Supp. Figure 3a, relative MeV N RNA in PBMCs, group mean (Mean 2) (MeV N gene RNA; therapeutic (d7), Day 17): -8.639
Supp. Figure 3a, relative MeV N RNA in PBMCs, group mean (Mean 2) (MeV N gene RNA; therapeutic (d7), Day 21): -9.558
